Reference: US7968556B2, “Heteroaryl compounds, compositions thereof, and methods of treatment therewith” (Signal Pharmaceuticals, LLC, priority 2006, dated 2011)
pIC50: −log10 of the molar value.

Experiments:
Syk = target: T1, Syk (Homo sapiens, UniProt P43405); test: Syk HTRF Assay; assay type: biochemical
T1 construct: purchased Cama Biosciences (so in the source)
Method: 5 μl/well DMSO is added to Column 2 Wells A-0 and 29.5 μl to well P2 of Greiner 384-well polypropylene plate. 20 μl/well DMSO is added to Columns 1 and 3-12.
25 mM compound solutions are prepared by the addition of 25 μl of 30 mM compound to Column 2 and 0.5 μl 30 mM reference control to well P2.
Serial dilution is then performed by the following steps: (i) compounds in Column 2 are mixed by pipetting 20 μl up and down 6×; (ii) 10 μl/well compounds in DMSO are transferred from one column to the next column for Columns 2-11; (iii) wells are mixed by pipetting 20 μl up and down 6×; (iv) tips washed 3×25 μl DMSO, 2×25 μl next DMSO.
(§1) The following buffers are prepared:
Dilution Buffer: 50 mM HEPES pH 7.6; 1 mM DTT; 10 mM MgCl2; 0.01% Triton X100; 0.01% BSA; 0.1 mM EDTA.
Enzyme Mix in Dilution Buffer: 8.621 ng/ml Syk (Cama Biosciences 08-176).
Start Mix in Dilution Buffer: 87.5 μM ATP; 80 nM Substrate Peptide (American Peptide Company 332722).
14.5 μl/well Enzyme Mix or Dilution Buffer (Background Controls) is added to Costar 384-well black plates.
Compound addition and mixture is performed by the following steps: (i) 0.5 μl/well DMSO/compounds in DMSO transferred from Greiner 384-well polypropylene plate to left half of assay plate containing 14.5 μl/well Enzyme Mix and Dilution Buffer; (ii) Mix by pipetting 10 μl up and down 4×; (iii) tips are washed 4×10 μl in DMSO, 2×20 μl in other DMSO; (iv) steps i-iii are repeated with transfer to right half of assay plate; (v) steps i-iv are repeated with each compound/assay plate until all plates are completed.
10 μl/well Start Mix is added and incubated at room temperature on shaker for 2 minutes (1 hour total reaction time).
Stop Solution in Dilution Buffer: 120 mM EDTA
Antibody Mix in Dilution Buffer: 4.86 μg/ml DyLight 647 Streptavidin (Pierce 21824); 1 μg/ml Lance Eu-Anti-Phosphotyrosine (PerkinElmer AD0069).
5 μl/well[…] is added and incubated at room temperature on shaker for 2 minutes.
[…] Antibody Mix is added and Incubated at room temperature on shaker for 2 minutes (4 hours to overnight total time).
Plates are read at 665 nm and 620 nm emission on Analyst GT protocol HTRF_SP_A or EnVision protocol Steve's TR-FRET.

mTOR = mTOR (Homo sapiens, UniProt P42345); test: mTOR HTR-FRET Assay; assay type: biochemical
How it was run: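 TOR enzyme fraction preincubated 30 min at room temperature with compound, then reaction started with GST-p70S6 kinase fragment substrate (97 nM working stock) plus ATP/Mn2+ and run 2 h at room temperature in Tris pH 7.4 buffer. Stopped with EDTA; phospho-substrate detected by HTRF antibody reagent after 5 h to overnight.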

Tyk2 = target: T2, Tyk2 (Homo sapiens, UniProt P29597); test: Tyk2 HTRF Assay; assay type: biochemical
T2 construct: 450 ng/ml TYK2 KD (Cama Biosciences 08-147 Lot 06CBS-3022D); purchased Cama Biosciences (so in the source)
T2 sequence (P29597 897-1176 limits assumed): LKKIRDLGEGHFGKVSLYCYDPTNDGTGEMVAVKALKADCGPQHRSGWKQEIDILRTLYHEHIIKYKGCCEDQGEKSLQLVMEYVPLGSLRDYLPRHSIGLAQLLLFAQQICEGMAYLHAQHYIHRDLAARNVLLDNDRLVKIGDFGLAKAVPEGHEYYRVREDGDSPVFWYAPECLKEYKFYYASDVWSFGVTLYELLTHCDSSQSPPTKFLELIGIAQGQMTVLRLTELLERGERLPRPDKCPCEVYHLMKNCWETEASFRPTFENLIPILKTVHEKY
Method: The following is an example of an assay that can be used to determine the Tyk2 inhibitory activity of a test compound.
25 μl/well DMSO is added to Columns 2 and 14 (except 28.5 μl is added to well P14 of Greiner 384-well polypropylene plate). 20 μl/well DMSO is added to all remaining wells.
5 mM compound solutions are added by addition of 5 μl of 30 mM compound to 25 μl DMSO in Columns 2 and 14 of plate. 1.5 mM reference control is prepared by addition of 1.5 μl of 30 mM JAK3 Inhibitor VI to 28.5 μl DMSO in Well P14.
Serial dilution is then performed by the following steps: (i) Compounds in Column 2 are mixed by pipetting 20 μl up and down 6X; (ii) 10 μl/well compounds in DMSO are transferred from one column to the next column for Columns 2-11; (iii) wells are mixed by pipetting 20 μl up and down 6×; (iv) tips are washed 3×25 μl DMSO, 2×25 μl next DMSO; (v) steps i-iv repeated for Columns 14-23.
as §1
Assay Buffer: 50 mM HEPES pH 7.6; 1 mM DTT; 10 mM MgCl2; 0.01% Triton X100; 0.01% BSA; and 0.1 mM EDTA.
Kinase in Assay Buffer: 450 ng/ml TYK2 KD (Cama Biosciences 08-147 Lot 06CBS-3022D).
Substrate/Detection Mixture (1×ATP) in Assay Buffer: 188 nM DyLight 647-Streptavidin (Pierce 21824); 5 μM Biotin-EQEDEPEGDYFEWLE (Lyn Substrate Peptide); 750 ng/ml Eu-anti-phospho-Tyrosine (PerkinElmer AD0069); 62.5 μM ATP; 80 nM Substrate Peptide (American Peptide Company 332722).
Substrate/Detection Mixture (20×ATP) in Assay Buffer: 188 nM DyLight 647-Streptavidin; 5 μM Biotin-EQEDEPEGDYFEWLE; 750 ng/ml Eu-anti-phospho-Tyrosine; 1250 μM ATP; 80 nM Substrate Peptide.
14.5 μl/well Enzyme Mix or Dilution Buffer (Background Controls) is added to Costar 384 well black plates.
Compound addition and mixture is performed by the following steps: (i) 0.5 μl/well DMSO/compounds in DMSO is transferred from Greiner 384-well polypropylene plate to a plate containing 14.5 μl/well Enzyme Mix and Dilution Buffer; (ii) mixed by pipetting 10 μl up and down 4×; (iii) tips are washed 4×10 μl in DMSO, 2×20 μl in other DMSO; (iv) steps i-iii are repeated until all plates are completed.
10 μl/well Substrate/Detection Mixtures is added and incubated at room temperature 2 hours (on shaker for first 2+ minutes).
10 μl/well 50 mM EDTA/0.01% Triton X100 is added and incubated >15 minutes at room temperature (on shaker for first 2+ minutes).
Plates are read at 665 nm and 620 nm emission on Analyst GT protocol HTRF_SP_A (Counts= 665/620×10000).

Row | pIC50 (Syk) | melting point [°C] | pIC50 (mTOR) | pIC50 (Tyk2) | SMILES
1 | – | 312 | < 4.52 | 5.30 to 7.00 | COc1ccccc1-n1c(=O)[nH]c2c(C(N)=O)nc(-c3cccc4[nH]cnc34)nc21 [Compound 99, 2-(1H-benzo[d]imidazol-4-yl)-9-(2-methoxyphenyl)-8-oxo-8,9-dihydro-7H-purine-6-carboxamide]
2 | 4.70 to 5.00 | 278 | 5.30 to 7.00 | – | NC(=O)c1nc(-c2ccc3nc[nH]c3c2)nc2c1[nH]c(=O)n2-c1ccccc1F [Compound 101, 2-(1H-benzo[d]imidazol-6-yl)-9-(2-fluorophenyl)-8-oxo-8,9-dihydro-7H-purine-6-carboxamide]

Further lines, the molecule ahead of its results:

Row | SMILES | pIC50 (Syk) | melting point [°C] | pIC50 (mTOR) | pIC50 (Tyk2)
3 | COc1ccccc1-n1c(=O)[nH]c2c(C(N)=O)nc(-c3cccc(N)c3)nc21 [Compound 38, 2-(3-aminophenyl)-9-(2-methoxyphenyl)-8-oxo-8,9-dihydro-7H-purine-6-carboxamide] | < 4.52 | 284 to 285 | – | –
4 | COc1ccccc1-n1c(=O)[nH]c2c(C(N)=O)nc(-c3cccc(O)c3Cl)nc21 [Compound 54, 2-(2-Chloro-3-hydroxyphenyl)-9-(2-methoxyphenyl)-8-oxo-7-hydropurine-6-carbox amide] | 5.30 to 7.00 | 331 to 334 | 5.30 to 7.00 | –
5 | NC(=O)c1nc(-c2cccc(O)c2)nc2c1[nH]c(=O)n2-c1c(Cl)cccc1Cl [Compound 69, 9-(2,6-Dichlorophenyl)-2-(3-hydroxyphenyl)-8-oxo-7-hydropurine-6-carboxamide] | – | 290 to 292 | 5.30 to 7.00 | 5.30 to 7.00
6 | COc1ccccc1-n1c(=O)[nH]c2c(C(N)=O)nc(-c3cccc(O)c3F)nc21 [Compound 77, 2-(2-Fluoro-3-hydroxyphenyl)-9-(2-methoxyphenyl)-8-oxo-7-hydropurine-6-carbox-amide] | – | > 300 | 5.30 to 7.00 | 5.30 to 7.00
